Structures can show the parent of a compound that is named as a salt.
Tests used:
DAO = target: T1, DAO (Homo sapiens, UniProt P19801); assay: Inhibition of the enzymatic activity of DAO; assay type: biochemical; settings: DAO 15 μg/ml, histamine substrate; read-out: IC50, inhibition against the enzymatic activity of DAO
T1 construct: purchased R&D Systems
T1 sequence (P19801 20-751): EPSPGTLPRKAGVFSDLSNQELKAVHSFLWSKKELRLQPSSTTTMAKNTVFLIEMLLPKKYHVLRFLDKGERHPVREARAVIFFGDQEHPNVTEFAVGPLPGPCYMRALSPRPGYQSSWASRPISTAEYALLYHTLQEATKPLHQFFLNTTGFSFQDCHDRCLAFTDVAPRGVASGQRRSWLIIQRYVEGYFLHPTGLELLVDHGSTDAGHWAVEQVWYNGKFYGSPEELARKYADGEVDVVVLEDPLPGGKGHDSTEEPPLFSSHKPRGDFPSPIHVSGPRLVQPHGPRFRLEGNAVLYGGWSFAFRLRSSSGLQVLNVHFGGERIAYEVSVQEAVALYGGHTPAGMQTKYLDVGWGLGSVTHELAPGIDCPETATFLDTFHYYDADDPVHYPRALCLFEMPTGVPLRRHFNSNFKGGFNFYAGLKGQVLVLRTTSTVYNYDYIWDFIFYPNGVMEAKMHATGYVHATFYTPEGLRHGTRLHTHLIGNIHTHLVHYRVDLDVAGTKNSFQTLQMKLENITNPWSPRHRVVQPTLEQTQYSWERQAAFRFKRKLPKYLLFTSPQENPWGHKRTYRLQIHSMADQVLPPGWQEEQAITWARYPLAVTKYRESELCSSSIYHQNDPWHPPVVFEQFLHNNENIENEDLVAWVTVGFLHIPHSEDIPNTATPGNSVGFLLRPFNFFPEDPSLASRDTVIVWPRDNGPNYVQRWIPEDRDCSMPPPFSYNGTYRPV
Description: Inhibition Experiment Against the Enzymatic Activity of DAO (Diamine Oxidase)
(§1) 1. Test kit: Amplex® Red Monoamine Oxidase Assay, Manufacturer: ThermoFisher
Protein: DAO, manufacturer: R&D Systems
DAO protein (15 μg/ml) and different concentrations of the test compound were pre-incubated at room temperature for 20 minutes, and then 100 μM Histamine-dihydrochloride, 1 U/mL HRP and 200 μM Amplex Red reagent were added to start the reaction. The inhibition rate of each concentration groups were calculated according to the experimental method of MAO-A.

VAP-1 = target: T2, VAP-1 (Homo sapiens, UniProt Q16853); assay: Inhibition of the enzymatic activity of VAP-1 in vitro (Amplex Red); assay type: biochemical; settings: VAP-1 protein about 20 nM, 10 min pre-incubation, benzylamine substrate; read-out: IC50, inhibition against the enzymatic activity of VAP-1
T2 construct: purchased R&D Systems
T2 sequence (Q16853 1-763): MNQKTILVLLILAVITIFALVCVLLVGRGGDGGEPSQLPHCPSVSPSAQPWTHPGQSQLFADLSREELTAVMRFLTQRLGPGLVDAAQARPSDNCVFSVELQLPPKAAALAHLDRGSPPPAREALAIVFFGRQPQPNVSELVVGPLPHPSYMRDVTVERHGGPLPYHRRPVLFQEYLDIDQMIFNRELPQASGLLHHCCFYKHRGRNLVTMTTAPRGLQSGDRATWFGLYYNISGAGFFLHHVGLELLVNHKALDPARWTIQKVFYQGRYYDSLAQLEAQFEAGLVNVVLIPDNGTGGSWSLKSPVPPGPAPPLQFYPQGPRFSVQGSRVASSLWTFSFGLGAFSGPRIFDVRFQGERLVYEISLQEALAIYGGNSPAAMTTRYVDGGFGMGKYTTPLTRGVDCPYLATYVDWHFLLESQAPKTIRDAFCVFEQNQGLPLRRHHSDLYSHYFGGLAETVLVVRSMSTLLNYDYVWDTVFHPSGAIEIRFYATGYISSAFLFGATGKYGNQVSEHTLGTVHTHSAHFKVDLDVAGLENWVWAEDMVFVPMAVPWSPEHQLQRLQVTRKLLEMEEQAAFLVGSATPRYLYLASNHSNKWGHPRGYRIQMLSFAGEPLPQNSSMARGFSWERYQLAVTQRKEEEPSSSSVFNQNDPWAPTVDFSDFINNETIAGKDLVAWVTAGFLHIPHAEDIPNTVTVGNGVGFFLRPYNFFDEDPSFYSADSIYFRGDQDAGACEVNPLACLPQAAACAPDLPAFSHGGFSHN
Description: Inhibition Experiment Against the Enzymatic Activity of VAP-1(Vascular Adhesion Protein 1) in vitro
Test kit: Amplex® Red Monoamine Oxidase Assay, Manufacturer: ThermoFisher
Reaction buffer solution: 50 mM PBS, pH 7.4
Enzyme: VAP-1, Manufacturer: R&D Systems
VAP-1 protein (about 20 nM) and different concentrations of the test compound were pre-incubated at room temperature for 10 minutes, followed by an addition of […] benzylamine hydrochloride, 1 U/mL HRP and 200 μM Amplex Red reagent according to the specification of the test kit to start the reaction. The reaction plate was placed in the enzyme marker, and in kinetic mode, fluorescence signals were measured at Ex/Em=540/590 nm. The relative inhibition activity of each concentration group was calculated, wherein the ratio (slope) of fluorescence signal to reaction time in the linear range is the reaction rate, the vehicle group (DMSO) is the negative control, and the reaction buffer solution group (without enzymes and the compounds) is the blank control. The half inhibition concentration (IC50) of the compound was calculated according to four-parameter model fitting curve.

MAO-B = target: T3, MAO-B (Homo sapiens, UniProt P27338); assay: Inhibition of the enzymatic activity of MAO-B; assay type: biochemical; settings: range of IC50 from inhibition rates at 10 μM, 1 μM and 0.1 μM; read-out: IC50, inhibition against the enzymatic activity of MAO-B
T3 construct: purchased Sigma Aldrich
T3 sequence (P27338 1-520): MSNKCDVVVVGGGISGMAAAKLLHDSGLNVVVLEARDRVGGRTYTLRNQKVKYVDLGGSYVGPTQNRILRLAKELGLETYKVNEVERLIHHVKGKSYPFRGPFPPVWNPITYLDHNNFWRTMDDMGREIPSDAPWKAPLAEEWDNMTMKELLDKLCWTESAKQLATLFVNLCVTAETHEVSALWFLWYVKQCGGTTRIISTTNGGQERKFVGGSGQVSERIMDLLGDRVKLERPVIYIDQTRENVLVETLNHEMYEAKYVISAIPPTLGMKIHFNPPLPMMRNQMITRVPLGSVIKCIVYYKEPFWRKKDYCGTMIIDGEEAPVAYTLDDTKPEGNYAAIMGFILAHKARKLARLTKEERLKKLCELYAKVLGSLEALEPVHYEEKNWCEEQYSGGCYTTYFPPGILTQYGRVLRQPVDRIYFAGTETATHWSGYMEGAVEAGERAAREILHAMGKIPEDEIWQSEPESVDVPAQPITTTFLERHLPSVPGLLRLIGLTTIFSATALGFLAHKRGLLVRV
Description: Inhibition Experiment Against the Enzymatic Activity of MAO-B (Monoamine Oxidase Type B)
as §1
Protein: MAO-B, manufacturer: Sigma Aldrich
According to the method as described in the specification of the test kit, MAO-B protein (5 μg/ml) and different concentrations of the test compound were pre-incubated at room temperature for 10 minutes, and then 150 μM benzylamine hydrochloride, 1 U/mL HRP and 200 μM Amplex Red reagent were added to start the reaction. The relative inhibition rate of each concentration group were calculated according to the experimental method of MAO-A.
According to the above method, the inhibition of the compound against the activity of the MAO-B was measured, and the range of IC50 was obtained according to the inhibition rates at 10 μM, 1 μM and 0.1 μM.

MAO-A = target: T4, MAO-A (Homo sapiens, UniProt P21397); assay: Inhibition of the enzymatic activity of MAO-A; assay type: biochemical; settings: range of IC50 from inhibition rates at 100 μM and 10 μM; read-out: IC50, inhibition against the enzymatic activity of MAO-A
T4 construct: purchased Sigma Aldrich
T4 sequence (P21397 1-527): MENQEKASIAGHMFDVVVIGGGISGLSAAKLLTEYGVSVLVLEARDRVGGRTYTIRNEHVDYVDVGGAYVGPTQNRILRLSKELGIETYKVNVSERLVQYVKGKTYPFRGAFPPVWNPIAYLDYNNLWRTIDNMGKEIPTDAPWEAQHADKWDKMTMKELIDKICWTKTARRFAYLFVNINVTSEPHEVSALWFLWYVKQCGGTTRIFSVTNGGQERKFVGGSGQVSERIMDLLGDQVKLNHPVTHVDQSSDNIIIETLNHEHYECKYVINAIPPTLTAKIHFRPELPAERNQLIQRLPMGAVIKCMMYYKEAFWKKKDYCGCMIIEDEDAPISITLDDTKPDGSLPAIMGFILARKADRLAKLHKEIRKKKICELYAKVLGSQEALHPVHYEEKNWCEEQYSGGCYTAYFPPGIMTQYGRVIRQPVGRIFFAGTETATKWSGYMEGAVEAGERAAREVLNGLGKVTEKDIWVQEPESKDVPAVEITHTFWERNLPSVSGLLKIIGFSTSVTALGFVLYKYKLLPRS
Description: Inhibition Experiment Against the Enzymatic Activity of MAO-A (Monoamine Oxidase Type A)
as §1
2. Reaction Buffer Solution: 50 mM PBS, pH 7.4
Protein: MAO-A, manufacturer: Sigma Aldrich
According to the method as described in the specification of the kit, MAO-A protein (15 μg/ml) and different concentrations of the test compound were pre-incubated at room temperature for 30 minutes, and then 200 μM p-tyramine hydrochloride, 1 U/mL HRP and 200 µM Amplex Red reagent were added to start the reaction. In kinetic mode, fluorescence signals were measured at Ex/Em=540/590 nm. The inhibition rate of each concentration group was calculated, wherein the ratio of fluorescence signal to reaction time ratio is the reaction rate, the vehicle group (DMSO) is the negative control, and the reaction buffer solution group (without enzymes and the compounds) is the blank control.
Percent inhibition rate (%)=(1-(reaction rate of each compound concentration group−reaction rate of the blank group)/(reaction rate of vehicle group−reaction rate of the blank group))*100.
According to the above method, the inhibition of the compound against the enzymatic activity of MAO-A was measured, and the range of IC50 was obtained according to the inhibition rates at 100 μM and 10 μM.

hERG = target: T5, hERG (Homo sapiens, UniProt Q12809); assay: hERG fluorescence polarization inhibition experiment; settings: human, probe tracer having high affinity to hERG (kit tracer), hERG cell membrane, 25° C. 2 hours, read-out: hERG (IC50 range, competitive binding vs tracer)
T5 construct: purchased ThermoFisher; host or cells: hERG cell membrane supplied with the kit
T5 sequence (Q12809 whole entry): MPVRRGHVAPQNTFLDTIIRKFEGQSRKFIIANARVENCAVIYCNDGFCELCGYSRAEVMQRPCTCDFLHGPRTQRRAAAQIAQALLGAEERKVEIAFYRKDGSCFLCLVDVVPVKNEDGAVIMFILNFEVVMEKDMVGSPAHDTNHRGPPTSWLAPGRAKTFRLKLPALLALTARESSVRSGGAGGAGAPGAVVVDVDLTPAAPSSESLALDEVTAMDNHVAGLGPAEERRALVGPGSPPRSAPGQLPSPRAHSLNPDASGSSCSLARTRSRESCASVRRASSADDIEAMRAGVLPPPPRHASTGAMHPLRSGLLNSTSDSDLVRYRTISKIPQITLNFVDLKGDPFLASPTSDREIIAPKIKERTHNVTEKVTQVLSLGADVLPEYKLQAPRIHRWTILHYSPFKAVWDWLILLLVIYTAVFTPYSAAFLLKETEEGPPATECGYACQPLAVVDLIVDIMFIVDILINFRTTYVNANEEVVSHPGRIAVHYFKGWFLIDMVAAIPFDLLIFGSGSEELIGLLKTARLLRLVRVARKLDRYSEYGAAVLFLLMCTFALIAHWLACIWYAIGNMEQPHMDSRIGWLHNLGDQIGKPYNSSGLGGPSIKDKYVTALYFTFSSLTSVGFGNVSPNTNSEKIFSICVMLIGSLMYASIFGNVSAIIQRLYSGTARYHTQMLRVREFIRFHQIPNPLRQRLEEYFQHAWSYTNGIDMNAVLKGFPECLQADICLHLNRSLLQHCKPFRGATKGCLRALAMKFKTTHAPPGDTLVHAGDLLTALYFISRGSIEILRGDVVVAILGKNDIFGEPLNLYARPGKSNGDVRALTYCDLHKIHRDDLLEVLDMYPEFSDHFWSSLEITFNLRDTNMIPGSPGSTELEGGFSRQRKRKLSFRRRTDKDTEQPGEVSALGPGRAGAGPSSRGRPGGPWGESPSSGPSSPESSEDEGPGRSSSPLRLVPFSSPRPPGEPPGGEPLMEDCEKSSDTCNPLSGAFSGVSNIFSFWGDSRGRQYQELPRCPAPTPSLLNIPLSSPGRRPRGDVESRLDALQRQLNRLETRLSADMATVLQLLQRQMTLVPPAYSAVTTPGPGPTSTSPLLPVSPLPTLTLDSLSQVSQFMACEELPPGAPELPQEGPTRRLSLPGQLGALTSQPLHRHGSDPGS
Description: hERG (Ether-a-go-go-related Gene Potassium Channel) Inhibition Experiment
Reagent: Predictor™ hERG Fluorescence Polarization Assay Kit, Manufacturer: ThermoFisher
The above test kit was used to evaluate the potential of the compound for inducing heart QT prolongation. According to the method as indicated in the specification of the test kit, the test compound, the positive control (E4031) and negative control (Experimental buffer solution) in the kit were added to a microwell plate containing hERG cell membrane, and then a tracer having high affinity to hERG was added. The microwell plate was then incubated at 25° C. for 2 hours, a BMG PHAREStar polyfunctional enzyme marker was used to test the variations in the fluorescent polarization value. By calculating the percent inhibition rates (%) at different concentrations, the range of the half inhibition concentration (IC50) was determined:
Percent inhibition rate (%)=(1-(mP of the test compound-mP of 30 μM E4031)/(mP of experimental buffer solution-mP of 30 μM E4031))*100.

| Compound | IC50 (DAO) [nM] | IC50 (VAP-1) [nM] | IC50 (MAO-B) [nM] | IC50 (MAO-A) [nM] | IC50 at 2 h (hERG) [nM] |
| --- | --- | --- | --- | --- | --- |
| NC/C(=C/F)COc1ccc2c(c1)C(=O)CC2 [TM7-Z, (Z)-6-((2-aminomethyl-3-fluoroallyl)oxy)-2,3-dihydro-1-indenone trifluoroacetate] | > 100 | 3.8 ± 0.4 | > 10000 | – | – |
| NC/C(=C/F)COc1ccc(C(=O)NC2CCOCC2)cc1 [TM76-Z, (Z)-N-(tetrahydro-2H-pyran-4-yl)-4-((2-aminomethyl-3-fluoroallyl)oxy)-benzamide trifluoroacetate] | – | 1.8 ± 0.2 | > 100 | > 100000 | – |
| NC/C(=C/F)COc1ccc2c(c1)CNC2=O [TM77-Z, (Z)-5-((2-aminomethyl-3-fluoroallyl)oxy)isoindol-1-one trifluoroacetate] | – | – | – | > 100000 | > 10000 |
| NC/C(=C\F)COc1ccc(C(=O)NCc2ccccn2)cc1 [TM112-E, (E)-4-((2-aminomethyl-3-fluoroallyl)oxy)-N-(pyridin-2-ylmethyl)benzamide trifluoroacetate] | – | 3.2 ± 0.4 | > 100 | > 100000 | – |
| NC/C(=C\F)COc1ccc(C(=O)Nc2ccc3c(c2)OCCO3)cc1 [TM114-E, (E)-4-((2-aminomethyl-3-fluoroallyl)oxy)-N-(2,3-dihydrobenzo[b][1,4]dioxa-6-yl)benzamide trifluoroacetate] | – | 1.1 ± 0.2 | – | > 10000 | – |
| NC/C(=C/F)COc1ccc(C(=O)Nc2ccc3c(c2)OCCO3)cc1 [TM114-Z, (Z)-4-((2-aminomethyl-3-fluoroallyl)oxy)-N-(2,3-dihydrobenzo[b][1,4]dioxa-6-yl)benzamide trifluoroacetate] | – | 0.8 ± 0.1 | – | > 10000 | – |
| (Z)-6-((2-(methylamino)-3-fluoroallyl)oxy)-2-methyl-3,4-dihydroisoquinolin-1(2H)-one trifluoroacetate [TM66-Z] | – | 1.6 ± 0.2 | > 10000 | – | – |
| (Z)-6-((2-(methylamino)-3-fluoroallyl)oxy)-3,3-dimethyl-3,4-dihydroisoquinolin-1(2H)-one trifluoroacetate [TM38-Z] | > 100 | 2.9 ± 0.3 | > 10000 | – | – |
